{
  "source": "paper PMC9512246",
  "about": "“GAPDH mediates drug resistance and metabolism in Plasmodium falciparum malaria parasites” (PLoS Pathogens, 2022)",
  "key": {"[1]": {"target": "T1, glyceraldehyde 3-phosphate dehydrogenase (PfGAPDH, wild-type) (Plasmodium falciparum, UniProt Q8IKK7)", "T1 construct": "gene PF3D7_1462800; recombinant PfGAPDH, N-terminal 6x-His tag, N-term and C-term modifications for improved solubility", "test": "Michaelis-Menten kinetics of purified enzyme (Abs340, NADH formation)", "type": "biochemical"}, "[2]": {"target": "T2, glyceraldehyde 3-phosphate dehydrogenase (PfGAPDH I209T) (Plasmodium falciparum, UniProt Q8IKK7, I209T)", "T2 construct": "gene PF3D7_1462800; recombinant PfGAPDH, N-terminal 6x-His tag, N-term and C-term modifications for improved solubility", "test": "heme titration by absorption spectroscopy (purified protein)", "type": "binding"}, "[3]": {"target": "T1, glyceraldehyde 3-phosphate dehydrogenase (PfGAPDH, wild-type)", "test": "heme titration by absorption spectroscopy (purified protein); enzyme inhibition also measured, EC50 =[…]", "type": "binding"}, "[4]": {"target": "Plasmodium falciparum glyceraldehyde 3-phosphate dehydrogenase I209T variant (recombinant) (Plasmodium falciparum) (UniProt Q8IKK7)", "test": "SEC; analytical size exclusion chromatography; 1mg of purified protein in 1mL of FPLC buffer (100mM Tris-HCl pH 7.5, 1mM MgCl2, 1mM DTT, 10% w/v glycerol); all proteins prepped the same day and dialyzed in the same buffer the night before at 4°C"}, "[5]": {"target": "Plasmodium falciparum glyceraldehyde 3-phosphate dehydrogenase V238A variant (recombinant) (Plasmodium falciparum) (UniProt Q8IKK7)", "test": "SEC; analytical size exclusion chromatography; 1mg of purified protein in 1mL of FPLC buffer (100mM Tris-HCl pH 7.5, 1mM MgCl2, 1mM DTT, 10% w/v glycerol); all proteins prepped the same day and dialyzed in the same buffer the night before at 4°C"}, "[6]": {"target": "Plasmodium falciparum glyceraldehyde 3-phosphate dehydrogenase, wild type (recombinant) (Plasmodium falciparum) (UniProt Q8IKK7)", "test": "SEC; analytical size exclusion chromatography; 1mg of purified protein in 1mL of FPLC buffer (100mM Tris-HCl pH 7.5, 1mM MgCl2, 1mM DTT, 10% w/v glycerol); all proteins prepped the same day and dialyzed in the same buffer the night before at 4°C"}},
  "note": "Several values for one entry are separate records, joined by “and”; a condition that tells them apart may be missing. Equal entries are not always repeated.",
  "data": [
    {"compound": "O=C[C@H](O)COP(=O)(O)O", "note": "[D-glyceraldehyde 3-phosphate]", "values": [
      {"measurement": "Michaelis-Menten kinetics of purified enzyme (Abs340, NADH formation)", "setting": "[1]", "value": "FSM-resistant and wild-type enzymes shared Michaelis-Menten constants for all three substrates NAD+, GAP, and Pi"}
    ]},
    {"compound": "NC(=O)c1ccc[n+]([C@@H]2O[C@H](COP(=O)([O-])OP(=O)(O)OC[C@H]3O[C@@H](n4cnc5c(N)ncnc54)[C@H](O)[C@@H]3O)[C@@H](O)[C@H]2O)c1", "note": "[NAD+]", "values": [
      {"measurement": "Michaelis-Menten kinetics of purified enzyme (Abs340, NADH formation)", "setting": "[1]", "value": "FSM-resistant and wild-type enzymes shared Michaelis-Menten constants for all three substrates NAD+, GAP, and Pi"}
    ]},
    {"compound": "C=CC1=C(C)C2=Cc3c(C=C)c(C)c4[n]3[Fe][n]3c(c(C)c(CCC(=O)O)c3=CC3=NC(=C4)C(C)=C3CCC(=O)O)=CC1=N2", "note": "[heme]", "values": [
      {"measurement": "Kd", "setting": "[2]", "value": 1840, "unit": "nM"},
      {"measurement": "Kd", "setting": "[3]", "value": 740, "unit": "nM"}
    ]},
    {"compound": "Plasmodium falciparum glyceraldehyde 3-phosphate dehydrogenase I209T variant (recombinant) (from UniProt Q8IKK7 4-335) (enzyme)", "values": [
      {"measurement": "stoichiometry N", "setting": "[4]", "value": "4 and 2"}
    ]},
    {"compound": "Plasmodium falciparum glyceraldehyde 3-phosphate dehydrogenase V238A variant (recombinant) (from UniProt Q8IKK7 4-335) (enzyme)", "values": [
      {"measurement": "stoichiometry N", "setting": "[5]", "value": "4 and 2"}
    ]},
    {"compound": "Plasmodium falciparum glyceraldehyde 3-phosphate dehydrogenase, wild type (recombinant) (from UniProt Q8IKK7 4-335) (enzyme)", "values": [
      {"measurement": "stoichiometry N", "setting": "[6]", "value": 4}
    ]}
  ]
}
